The values that follow are results of earlier work, collected in PMC7357848 (Journal of Chemical Information and Modeling, 2020).

The test system of this data set is hERG. As to conditions: IC50 with SP over IC50 with Protocol-O; ref 5 (Yao et al. 2005).

In the case of BeKm-1, the IC50 ratio is given as 10.3.
